The record followed here is ChEMBL document CHEMBL1155852, “Novel inhibitors of anthrax edema factor” (Bioorg Med Chem, 2008).

Assay [1] deals with T1, Calmodulin-sensitive adenylate cyclase (Bacillus anthracis, UniProt P40136).
T1 sequence (P40136 whole entry): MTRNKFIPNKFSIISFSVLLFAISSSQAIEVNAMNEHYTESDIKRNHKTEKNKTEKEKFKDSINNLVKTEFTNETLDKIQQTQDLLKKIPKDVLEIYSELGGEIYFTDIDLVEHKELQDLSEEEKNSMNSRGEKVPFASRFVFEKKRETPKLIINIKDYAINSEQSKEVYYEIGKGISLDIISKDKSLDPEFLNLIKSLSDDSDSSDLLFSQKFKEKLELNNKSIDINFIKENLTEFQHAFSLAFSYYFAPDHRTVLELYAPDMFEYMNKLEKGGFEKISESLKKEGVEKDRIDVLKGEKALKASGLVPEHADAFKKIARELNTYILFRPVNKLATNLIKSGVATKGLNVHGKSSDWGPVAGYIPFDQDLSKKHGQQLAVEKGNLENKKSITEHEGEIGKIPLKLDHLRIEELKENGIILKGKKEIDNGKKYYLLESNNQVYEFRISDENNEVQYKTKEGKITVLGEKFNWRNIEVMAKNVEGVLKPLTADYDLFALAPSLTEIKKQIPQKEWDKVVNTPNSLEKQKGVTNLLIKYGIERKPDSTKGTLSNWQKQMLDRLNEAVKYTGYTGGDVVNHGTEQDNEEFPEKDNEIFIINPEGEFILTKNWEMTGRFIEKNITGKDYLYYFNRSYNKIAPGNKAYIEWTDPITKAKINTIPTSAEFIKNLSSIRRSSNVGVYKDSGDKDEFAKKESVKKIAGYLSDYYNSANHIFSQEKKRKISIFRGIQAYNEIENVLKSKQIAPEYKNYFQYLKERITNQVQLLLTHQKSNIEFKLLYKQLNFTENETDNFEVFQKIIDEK
Put plainly: Inhibition of Bacillus anthracis edema factor-induced cAMP secretion in mouse RAW264.7 cells after 4 hrs by ELISA. In kind it is cell-based. For orientation: ELISA stands for enzyme-linked immunosorbent assay.

For assay [2], the target named is T2, Calmodulin-sensitive adenylate cyclase (Bacillus anthracis) (UniProt P40136).
T2 sequence (whole entry): T1 sequence (P40136 whole entry)
Put plainly: Inhibition of Bacillus anthracis edema factor-induced cAMP secretion in mouse RAW264.7 cells at 100 uM after 4 hrs by ELISA. In kind it is cell-based.

Activity calls are given as the source filed them. The rule behind the calls is not given here.

The IC50 is the point on the concentration scale where inhibition reaches its midpoint. Higher therefore signals weaker potency in that assay. Turning to `O=C(O)c1cccc(NC(=O)c2cccc3c2C(=O)c2ccccc2-3)c1`, the IC50 in assay [1] is 1.83 µM.
Consider `CCCCC[C@H](O)/C=C/[C@H]1[C@H](n2ccnc2)CC(=O)[C@@H]1C/C=C\CCCC(=O)O`, for which, in assay [2], the outcome was Active.
`COc1cccc([C@H]2Nc3ccc(C(=O)O)cc3[C@@H]3C=CC[C@H]23)c1` displayed an IC50 in assay [1] of 1.73 µM.
`O=C(O)c1ccc(/N=C/c2c3ccccc3cc3ccccc23)cc1O` had an IC50 in assay [1] of 8.5 µM.
